The text below walks through data of patent publication US20210379009A1, “ANTIBACTERIAL AGENT AGAINST ENTEROBACTERIUM WHICH CONTAINS EQUOL AS ACTIVE INGREDIENT” (priority 2018, published 2021).

Common to all, as to format: cell-based
The test system of assay [1] is Clostridioides difficile (NAP1/027 strain). Briefly: Growth inhibition on Clostridioides difficile NAP1/027 strain (OD600). The conditions noted are these: for inhibition of the growth of Clostridioides difficile versus control: FIG. 2. On the procedure:
Clostridioides difficile (NAP1/027 strain) was added to a medium containing equol in a concentration of 100 μg/mL, 75 μg/mL, 50 μg/mL, or 25 μg/mL (0 hour), and subsequently cultured to check the influence on the growth for 24 hours after the start of culture. The culture performed was totally under anaerobic conditions at 35° C.
Because equol dissolved in DMSO was used, a medium with addition only of DMSO was additionally subjected to measurement as a control.
The growth of the bacterium was examined by measuring the absorbance of each medium at 600 nm (OD600).
Equol is a final product generated from daidzin through daidzein and dihydrodaidzein. Inhibition of the growth of Clostridioides difficile by equol (100 μg/mL, 50 μg/mL), daidzein (50 μg/mL), and dihydrodaidzein (100 μg/mL, 50 μg/mL) was measured in the same manner as in Example 1.

Assay [2] deals with Bacteroides fragilis (B. fragilis). Description: Growth inhibition on other bacterial species: Bacteroides fragilis. The conditions noted are these: 100 μg/mL.
Assay [3] concerns Clostridioides difficile (NAP1/027 strain). Description: Influence on form of Clostridioides difficile (Gram staining). The following applies: 100 μg/mL; after 8-day culture; FIG. 5. As to the method: The influence of equol on the form of Clostridioides difficile (NAP1/027 strain) was validated through staining of Clostridioides difficile with Gram staining under the action of equol (100 μg/mL) in the same manner as in Example 1.

The subject of assay [4] is Clostridioides difficile. Briefly: Inhibition of sporulation of Clostridioides difficile (spore count). The conditions noted are these: 100 μg/mL; added to medium grown to a saturated state; from day 2; FIG. 6. As to the method:
To validate the influence of equol (100 μg/mL) on the sporulation of Clostridioides difficile, equol was added to a medium in which Clostridioides difficile had grown to a saturated state, and the number of spores formed was counted.

The test system of assay [5] is Clostridioides perfringens (C. perfringens (Clostridium perfringens)). The conditions noted are these: 100 μg/mL; FIG. 4.
Assay [6] has as its system Escherichia coli (E. coli). Briefly: Growth inhibition on other bacterial species: Escherichia coli. The conditions noted are these: 100 μg/mL; FIG. 4.

With `O=C1c2ccc(O)cc2OCC1c1ccc(O)cc1` (stereo not shown) [dihydrodaidzein, reference compound], the “inhibition of the growth of Clostridioides difficile versus control” value in assay [1] (50 μg/mL) is “no clear difference from the control”; in assay [1] (100 μg/mL) it was “inhibited the growth of Clostridioides difficile to the same degree”.
As for `O=c1c(-c2ccc(O)cc2)coc2cc(O)ccc12` [daidzein, reference compound], in assay [1] (50 μg/mL), the “inhibition of the growth of Clostridioides difficile versus control” value was “no clear difference from the control”.
For the compound `Oc1ccc([C@H]2COc3cc(O)ccc3C2)cc1` (stereo in doubt) [equol, 4′,7-isoflavandiol], the entries for the “inhibition of the growth of Clostridioides difficile versus control” value in assay [1] (50 μg/mL) and in assay [1] (100 μg/mL) were “inhibited the growth of Clostridioides difficile to the same degree” and “an even higher degree of inhibition than them”, respectively. In assay [1] (equol 25 to 100 μg/mL, FIG. 1), the “concentration dependence of growth inhibition” value is listed as “the inhibition depended on the concentration of equol”. In addition, in assay [1] (equol 100, 75, 50 or 25 μg/mL, 24 hours, anaerobic, 35° C., DMSO control, FIG. 1), the “growth of Clostridioides difficile (OD600) versus control” value is given as “slower than that in the control”. Further, the “proliferation of Bacteroides fragilis” value in assay [2] (52 hours of the test, FIG. 4) is recorded as “completely no proliferation”. Moreover, the “viability of Bacteroides fragilis after transfer into a medium without equol” value in assay [2] (transferred at the end of 52 hours of the test) is given as “only the growth was inhibited, without killing the bacterium”. The “form of cells (Gram staining) versus control” value in assay [3] was “forms longer and thinner than those of cells in the control”. In addition, the “number of spores formed versus control” value in assay [4] is on record as “few spores”. Besides, the “influence on growth of Clostridioides perfringens” value in assay [5] is recorded as “An influence was observed”. The “influence on growth of Escherichia coli” value in assay [6] is reported as “no influence was found”.
